Measured values published in patent US20240018480A1, “ENHANCEMENT OF EXTRACELLULAR VESICLE PRODUCTION BY LYSOSOME INHIBITOR” (ExoTop Theragnostics Inc., priority 2022, published 2024).
“Also recorded” adds a separate entry of the source.

Assays:
human MSCs [1] = assay: Intracellular acidification of MSCs, acidic organelles stained by lysotracker red; type: cell-based; conditions: MSCs in CDPF with lysosome inhibitor vs CCM and CDPF, FIG. 2A
Experimental: (§1) Mesenchymal stem cells were seeded on the plate at a density of ˜5000 cells/cm^2 and the plate was placed in 5% CO2 humidified incubator. One day after the incubation, the culture media was aspirated to remove non-adherent cells and switched with a fresh media. The plate was incubated again. After further culturing for around 3 to 5 days, the culture media was aspirated and replaced by CDPF and/or lysosome inhibitor medium. The cells were cultured in the CDPF and/or lysosome inhibitor medium for 12, 24, or 48 hours. After the designated period of culturing, the culture media was collected and cell lysis buffer was immediately added to the cells on the plate. The collected media and cell lysate were each independently subjected to detection of the level of CD63 by ELISA and by qPCR, respectively.
Human MSCs were cultured in different media including complete culture medium (CCM), CDPF, and CDPF with lysosome inhibitor. The acidic organelles in live stem cells were stained by lysotracker red. […] Without lysosome inhibitor, the intracellular acidification was not suppressed.

human CD63 (hCD63) gene = assay: RT-qPCR of hCD63 gene expression in MSCs cultured in different media; type: cell-based; conditions: FIG. 2B
Experimental: as §1
To compare hCD63+ expression in MSCs cultured in various media including CCM, CDPF, and CDPF with lysosome inhibitor, RT-quantitative real-time PCR (RT-qPCR) assays were performed.

human MSCs [2] = assay: CD63 ELISA of culture media collected after culture with stem cells (secretion of EVs); type: cell-based; conditions: FIG. 3A
Experimental: as §1, with “5000” for “˜5000”
To quantitatively compare CD63+ expression in CM cultured in various media including CCM, CDPF, and CDPF with lysosome inhibitor, enzyme-linked immunosorbent (ELISA) assays were performed.

[3] = tested on: fatty acid synthase (FASN); assay: qPCR relative quantification (RQ) of fatty acid synthase (FASN) in MSCs; type: cell-based, human; conditions: FIG. 3C
[4] = MSCs in CDPF with lysosome inhibitor, RT-qPCR

SMILES: CCN(CC)CCCC(C)Nc1ccnc2cc(Cl)ccc12 (stereo not drawn) [lysosome inhibitor, chloroquine]
- intracellular acidification of human MSCs (human MSCs [1]): suppressed
- expression of human CD63 gene in the MSCs (in words) (human CD63 (hCD63) gene; CDPF with lysosome inhibitor vs CCM, CDPF, qPCR): increased; also recorded: dramatic increase
- expression of hCD63+ gene, times higher than MSCs cultured in CCM (human CD63 (hCD63) gene; [4]): about 10 times
- expression of hCD63+ gene, times higher than MSCs cultured in CDPF without lysosome inhibitor (human CD63 (hCD63) gene; [4]): about 5 times
- secretion of EVs (CD63-positive particles) from stem cells to the cultured media (in words) (human MSCs [2]; Ly_Inhibitor+CDPF vs CCM and CDPF, CD63 ELISA): stimulated
- EV production (CD63+ particles), times higher than MSCs cultured in CCM or in CDPF without lysosome inhibitor (human MSCs [2]; MSCs in CDPF with lysosome inhibitor, CD63 ELISA of media): about 2.3 times
- expression of FASN, times higher than MSCs cultured in CCM ([3]; MSCs in CCM with lysosome inhibitor, RT-qPCR): about 25 times
- expression of FASN, times higher than MSCs cultured in CDPF without lysosome inhibitor [3, 4]: about 5 times
- gene expression of FASN (in words) ([3]; treatment with the inhibitor, qPCR RQ): drastically induced
